Results: US20100204118A1, “USE OF GRF-1 (1-29 ) AND CORTICOTROPIN-RELEASING FACTOR AS THERAPEUTIC AGENTS” (priority 2007, published 2010)
Ends that are not written are not given here.

Legend:
[1] = test system: HIV-1IIB; assay: HIV-1 antiviral assay in CEM-SS cells (MTS readout); format: cell-based
[2] = test system: HCMV strain AD169; assay: HCMV plaque reduction assay in MRC-5 cells; format: cell-based; conditions: for inhibition of HCMV plaque formation as compared to the virus control experiment: 10 micrograms per ml, 7-10 days
[3] = test system: murine spleen cells; assay: Th1/Th2 cytokine profiling assay (Ovalbumin-restimulated spleen cells, CBA kit); format: cell-based, mouse; conditions: 10 micrograms per ml; 72 hours after Ovalbumin restimulation
[4] = test system: Primary Human endothelial cells (HUVEC); assay: Endothelial cell migration assay; format: cell-based; conditions: 10 micrograms per ml, 22 hours
[5] = test system: HUVEC; assay: Endothelial tube formation assay; format: cell-based, human; conditions: 10 micrograms per ml, 20 hours
Experimental: The endothelial tube formation assay is based on the ability of endothelial cells to form three-dimensional capillary-like tubular structures when cultured on a gel of basement membrane extract. The endothelial tube formation assay represents a powerful model for studying inhibition and induction of angiogenesis. Pre-labeled HUVEC with Calcein AM were seeded in a 96-well culture plate coated with extracellular metrix (Chemicon international Cat. ECM625) and treated with test peptides-10 micrograms per ml-in full growth medium. […] control was vehicle only. […] Duplicate wells for each treatment were photographed and quantitatevily analyzed for an average tubule length using image analysis software ImageProPlus. Raw data were expressed as average tubule […]±standard deviation. Statistic p values were computed using the Student's t-test.

[6] = test system: A549 cells; assay: Apoptosis induction assay (Annexin-5); format: cell-based, human; conditions: 10 micrograms per ml, 24 hours
[7] = test system: hepatitis B virus (HBV) ayw strain; assay: HBV experimental assay system, HepG2-2.2.15, TaqMan PCR of secreted HBV DNA; format: cell-based; conditions: 10 micrograms per ml; six days; HBV DNA in supernatant
Source text: HepG2-2.2.15 is a stable cell line containing the hepatitis B virus (HBV) ayw strain genome (ATCC Cat. No. CRL-11997). Antiviral compounds blocking any late step of viral replication such as transcription, translation, pregenome encapsidation, reverse transcription, particle assembly and release can be identified and characterized using this cell line. In this assay, an active compound will reduce the production of secreted HBV from cells, measured by utilizing real time quantitative PCR (TaqMan) assay to directly and accurately measure HBV DNA copies.
HepG2-2.2.15 cells were plated in 96-well microtiter plates. After 16-24 hours the confluent monolayer of HepG2-2.2.15 cells was washed and the medium was replaced with complete medium containing test peptides—10 micrograms per ml—in duplicate. […] Six days following the initial administration of the peptides, the cell culture supernatants was collected, treated with pronase and DNAse and then used in a real-time quantitative TaqMan PCR assay. The PCR-amplified HBV DNA was detected in real-time by monitoring increases in fluorescence signals that result from the exonucleolytic degradation of a quenched fluorescence probe molecule that hybridizes to the mplified HBV DNA. […] Antiviral activity was calculated from the reduction in HBV DNA levels (% virus control). […]

Compound	antiviral activity of positive control compounds (HIV-1) [1]	production of IL-2, induced by [3]	production of IL-5, decreased by [3]	production of TNF-alpha, induced by [3]	inhibition of HCMV plaque formation as compared to the virus control experiment [2]	inhibition of the tube formation of human endothelial cells [5]	inhibition of HBV replication as compared to the virus control infection [7]	also measured
Cc1cn([C@H]2C[C@H](N=[N+]=[N-])[C@@H](CO)O2)c(=O)[nH]c1=O [AZT]	expected levels of antiviral activity							
Nc1nc(O)c2ncn(COC(CO)CO)c2n1 [Ganciclovir, reference compound]								antiviral activity of positive control compound (HCMV) ([2]; positive control): expected levels of antiviral activity
CC(C)(C)NC(=O)[C@@H]1CN(Cc2cccnc2)CCN1C[C@@H](O)C[C@@H](Cc1ccccc1)C(=O)N[C@H]1c2ccccc2C[C@H]1O [indinavir]	expected levels of antiviral activity							
Ser-Glu-Glu-Pro-Pro-Ile-Ser-Leu-Asp-Leu-Thr-Phe-His-Leu-Leu-Arg-Glu-Val-Leu-Glu-Met-Ala-Arg-Ala-Glu-Gln-Leu- Ala-Gln-Gln-Ala-His-Ser-Asn-Arg-Lys-Leu-Met-Glu-Ile-Ile-N H2 (SEEPPISLDLTFHLLREVLEMARAEQLAQQAHSNRKLMEII-NH2) [Peptide 2]		66.5%	93.0	38.1%	3.2%	did not inhibit	57.2%	production of IFN-gamma, induced by [3]: 44.1%; production of IL-4, induced by [3]: 78.1%; inhibition of the migration of human endothelial cells (in words) [4]: did not inhibit; induction of apoptosis on human lung cells [6]: 0.9%
Tyr-Ala-Asp-Ala-Ile-Phe-Thr-Asn-Ser-Tyr-Arg-Lys-Val-Leu-Gly-Gln-Leu-Ser-Ala-Arg-Lys-Leu-Leu-Gln-Asp-Ile-Met-Ser-Arg-NH2 (YADAIFTNSYRKVLGQLSARKLLQDIMSR-NH2) [Peptide 1]		30.9%	33.0	55.5%	0.7%	did not inhibit	30.5%	change of the production of IL-4 (in words) [3]: did not significantly change; production of IFN-gamma, decreased by [3]: 29.0; inhibition of the migration of human endothelial cells [4]: 9%; induction of apoptosis on human lung cells (in words) [6]: did not show any significant induction of apoptosis
